Source: patent publication US20090130229A1, “Antitumor uses of compound” (Cell Therapeutics, Inc., priority 2002, published 2009)

What was measured:
FGF-R3 mutant Y373C = target: T1, FGF-R3 mutant Y373C (Homo sapiens, UniProt P22607, Y373C); test: FGF-R3 (Y373C) autophosphorylation and expression in NIH3T3 transfectants; assay type: cell-based; details: 72 h
T1 construct: expressed in transfected cells; host or cells: NIH3T3 (mouse fibroblasts)
Procedure: (§1) FIG. 6. Inhibition of autophosphorylation and expression of FGF-R1 and FGF-R3 receptors in whole cells by Cpd1. A): Swiss3T3 cells were serum starved for 24 h and then treated with Cpd1 at the indicated concentrations, for 18 h. After stimulation with 100 ng/ml FGF for 5 min, whole cell lysates were prepared and subjected to Western blotting with anti-pTyr or anti-FGF-R1. Protein loading by anti-actin blot is shown. B): NIH3T3 transformed by the FGF-R3 mutant Y373C were treated with the indicated concentrations, for 72 h. Cell extracts were immunoprecipitated with anti-FGF-R3 and then subjected to Western blotting with anti p-Tyr or anti-FGF-R3.
The following human medullary thyroid carcinoma (MTC) cell lines were used in this study. The TT cell line derived from a MEN2A-associated MTC characterized by expression of the RET oncogene carrying the mutation C634W. The MZ-CRC-1 cell line derived from MEN2B-associated MTC characterized by expression of the RET oncogene carrying the mutation M918T. […]
For immunoprecipitation experiments, cells were treated with Cpd1 or solvent for the indicated times. […] Protein concentration was determined by the BCA reagent (Pierce). […]

FGF-R1 = target: T2, FGF-R1 (Mus musculus, UniProt P16092); test: FGF-R1 autophosphorylation and expression in Swiss3T3 cells; assay type: cell-based; details: 18 h
T2 construct: endogenous in cells; host or cells: Swiss3T3 (mouse fibroblasts)
T2 sequence (P16092 22-822): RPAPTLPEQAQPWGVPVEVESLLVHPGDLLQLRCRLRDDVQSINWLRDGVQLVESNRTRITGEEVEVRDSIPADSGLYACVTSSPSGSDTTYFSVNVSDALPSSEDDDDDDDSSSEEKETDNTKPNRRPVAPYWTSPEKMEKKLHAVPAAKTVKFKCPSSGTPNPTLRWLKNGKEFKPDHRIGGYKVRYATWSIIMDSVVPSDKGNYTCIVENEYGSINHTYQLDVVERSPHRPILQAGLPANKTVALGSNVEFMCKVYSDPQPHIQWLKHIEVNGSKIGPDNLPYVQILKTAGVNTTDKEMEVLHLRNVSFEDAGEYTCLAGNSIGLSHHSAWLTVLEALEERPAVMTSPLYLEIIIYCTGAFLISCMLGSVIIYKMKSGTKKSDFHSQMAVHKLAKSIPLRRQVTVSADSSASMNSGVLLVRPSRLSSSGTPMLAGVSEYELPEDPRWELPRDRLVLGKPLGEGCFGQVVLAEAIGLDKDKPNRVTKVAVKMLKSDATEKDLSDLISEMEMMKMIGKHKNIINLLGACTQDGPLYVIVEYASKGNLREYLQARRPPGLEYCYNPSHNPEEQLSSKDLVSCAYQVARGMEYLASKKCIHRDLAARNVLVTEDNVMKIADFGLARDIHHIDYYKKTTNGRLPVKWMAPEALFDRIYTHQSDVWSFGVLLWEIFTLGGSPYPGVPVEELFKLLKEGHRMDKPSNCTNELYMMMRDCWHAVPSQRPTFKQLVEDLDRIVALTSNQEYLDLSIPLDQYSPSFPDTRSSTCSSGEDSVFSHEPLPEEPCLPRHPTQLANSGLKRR
Procedure: as §1
The following human medullary thyroid carcinoma (MTC) cell lines were used in this study. The TT cell line derived from a MEN2A-associated MTC characterized by expression of the RET oncogene carrying the mutation C634W. […]
For whole-cell extract preparation, cells were lysed in sodium dodecyl sulfate (SDS) sample buffer (62.5 mM Tris-HCl (pH 6.8), 2% SDS) with 1 mM PMSF, 10 μg/ml pepstatin, 12.5 μg/ml leupeptin, 100 KIU aprotinin, 1 mM sodium orthovanadate, 1 mM sodium molybdate. Protein concentration was determined in appropriately diluted aliquots by the bicinchionic acid (BCA) method (Pierce, Rockford, Ill.), then samples were adjusted to a final concentration of 10% glycerol, 5% β-mercaptoethanol, 0.001% bromophenol blue. […]

[1] = system: TT medullary thyroid carcinoma xenografts; test: Antitumor activity in nude mice harboring TT xenografts; assay type: in vivo; details: for TWI (tumor weight inhibition): 10 consecutive days
Procedure: FIG. 3. Antitumor activity of Cpd 1 in nude mice harboring TT medullary thyroid carcinoma xenografts. Drug treatment started 25 days after s.c. inoculum of the tumor cells. Cpd 1 was delivered per os at 50 or 100 mg/Kg, twice in a day (2qd), for 10 consecutive days (indicated by arrows). Control mice received the vehicle. […] TWI were 60% (P<0.005) and 80% (P<0.0005) for the 50 mg/Kg and 100 mg/Kg doses, respectively.
All experiments were carried out using female athymic nude CD-1 mice, 8-11-weeks old (Charles River, Calco, Italy). Mice were maintained in laminar flow rooms with constant temperature and humidity. Experimental protocols were approved by the Ethic Committee for Animal Experimentation of the Istituto Nazionale per lo Studio e la Cura dei Tumori (Milan, Italy), according to the United Kingdom Coordinating Committee on Cancer Research Guidelines (Workman P. et al., British Journal of Cancer, 77, 1, 1998).
The MTC cells TT (1.6×10^7 cells) were s.c. inoculated in mice as a cell suspension from in vitro cell culture. Each control or drug-treated group included 8-10 tumors. Tumor cells were injected on day 0, and tumor growth was followed by biweekly measurements of tumor diameters with a Vernier caliper. Tumor weight (TW) was calculated according to the formula: TW (mg)=tumor volume (mm^3)=d^2xD/2, where d and D are the shortest and the longest diameter, respectively. Drug treatment started when tumors were just measurable (mean TW about 50 mg), 25 days after the inoculum of tumor cells. Cpd1 was dissolved in 5% ethanol, 5% Cremophor EL, 90% saline (0.9% NaCl) and delivered per os twice in a day (2qd) by a daily schedule for 10 days. Control mice received the solvent solution.
Drug efficacy was assessed as percentage TW inhibition (TWI % in drug-treated versus control mice expressed as: TWI %=100−(mean TW treated/mean TW control×100). For statistical analysis, TW in control and treated mice were compared on the day of TWI % evaluation, by Student's t test (two-tailed). P values less than 0.05 were considered statistically significant.

T1 sequence (P22607 23-806 Y373C): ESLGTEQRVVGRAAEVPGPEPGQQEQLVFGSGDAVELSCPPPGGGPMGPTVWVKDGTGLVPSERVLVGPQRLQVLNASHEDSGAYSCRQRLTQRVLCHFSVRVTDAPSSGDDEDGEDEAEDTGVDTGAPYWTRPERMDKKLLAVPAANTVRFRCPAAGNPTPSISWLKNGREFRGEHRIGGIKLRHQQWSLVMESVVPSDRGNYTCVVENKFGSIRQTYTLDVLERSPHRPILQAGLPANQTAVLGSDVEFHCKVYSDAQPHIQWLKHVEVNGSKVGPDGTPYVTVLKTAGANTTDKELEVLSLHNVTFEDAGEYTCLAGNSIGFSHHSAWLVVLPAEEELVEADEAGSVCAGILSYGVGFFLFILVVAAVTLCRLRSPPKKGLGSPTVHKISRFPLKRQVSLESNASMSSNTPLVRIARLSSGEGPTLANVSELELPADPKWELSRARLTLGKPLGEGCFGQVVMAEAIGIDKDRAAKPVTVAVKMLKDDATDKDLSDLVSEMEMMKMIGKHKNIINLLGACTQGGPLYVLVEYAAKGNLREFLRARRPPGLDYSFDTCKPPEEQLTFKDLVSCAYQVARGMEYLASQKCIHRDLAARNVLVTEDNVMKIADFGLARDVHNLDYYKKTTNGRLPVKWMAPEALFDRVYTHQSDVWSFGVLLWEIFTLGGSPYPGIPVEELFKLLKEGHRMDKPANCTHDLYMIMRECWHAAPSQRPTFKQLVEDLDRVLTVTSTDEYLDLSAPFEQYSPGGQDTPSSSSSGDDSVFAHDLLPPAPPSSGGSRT

COc1cc2c(cc1OC)/C(=C\c1ccc(O)cc1)C(=O)N2 [Cpd 1, (E)-1,3-dihydro-5,6-dimethoxy-3-[(4-hydroxyphenyl)methylene]-2H-indol-2-one]
FGF-R3 (Y373C) expression (FGF-R3 mutant Y373C): dose-dependent inhibition
FGF-R3 (Y373C) tyrosine phosphorylation (FGF-R3 mutant Y373C): dose-dependent inhibition
FGF-R1 tyrosine phosphorylation (FGF-R1; Swiss3T3 cells serum starved, 100 ng/ml FGF 5 min): dose-dependent inhibition
FGF-R1 expression (FGF-R1; Swiss3T3 cells): dose-dependent inhibition
TWI (tumor weight inhibition) ([1]; 50 mg/Kg per os, 2qd, P<0.005): 60%
TWI (tumor weight inhibition) ([1]; 100 mg/Kg per os, 2qd, P<0.0005): 80%
Tumor growth ([1]; 50 or 100 mg/Kg per os, 2qd, 10 days): significant dose-dependent inhibition
Tumor weight inhibition (TWI) reached ([1]; oral, daily dose of 50-100 mg/Kg (twice a day)): 80%
Toxicity ([1]; oral, daily dose of 50-100 mg/Kg (twice a day), nude mice): without inducing toxicity
